What was measured:
[1] = tested on: non-senescent IMR90 cells; assay: Cell counting assay, non-senescent IMR90; type: cell-based, human; settings: 3 μM, 24 hour exposure
Protocol: (§1) To determine whether ABT-263 is selectively toxic to senescent cells compared to non-senescent cells, a cell counting assay was used to determine cell survival following treatment with ABT-263. […] Each condition was seeded in three wells and counted independently. Cells were counted after a 24 hour exposure to ABT-263 (or control culture).

[2] = tested on: senescent IMR90 cells (Sen(IR) IMR90); assay: Cell counting assay, senescent IMR90; type: cell-based, human; settings: 3 μM, 24 hour exposure
Protocol: as §1

[3] = tested on: non-senescent IMR90 cells; assay: CellTiter-Glo cell viability assay, non-senescent IMR90; type: cell-based; settings: Homo sapiens, IMR-90, 72 h; non-senescent IMR90, 3 days
Protocol: (§2) To determine whether ABT-263 is selectively toxic to senescent cells compared to non-senescent cells, a cell viability assay was used to assess cell survival following treatment with ABT-263. IMR90 cells (human primary lung fibroblasts (IMR90) (IMR-90 (ATCC® CCL-186™, Manassas, Virginia) were seeded in six well plates, and cells were induced to senescence with 10 Gy of ionizing radiation (IR) (Day 0). The media was refreshed every 3 days. The senescent phenotype is allowed to develop for 7 days at which point a cell count was made to determine the baseline number of cells followed by seeding into 96-well plates. On day 8, the senescent cells (irradiated) and the non-senescent cells (the non-radiated cells), were exposed to serial dilutions of ABT-263 for a period of 3 days. ABT-263 concentrations ranged from 0.5 nM to 3 μM. Each condition was seeded in triplicate.
(§3) After three days of treatment (Day 11), cells were assayed for cell survival using the commercially available CellTiter-Glo® (CTG) Luminescent Cell Viability Assay (Promega Corporation, Madison, Wisconsin). The assay determines the number of viable cells in culture based on the quantitation of ATP present which is an indicator of metabolically active cells.
The experiments performed for assessing the effect of these other Bcl-2 inhibitors were performed essentially as described in Example 7. […]

senescent IMR90 cells = assay: CellTiter-Glo cell viability assay, senescent IMR90; type: cell-based, human
Protocol: as §2, §3
The experiments performed for assessing the effect of these other Bcl-2 inhibitors were performed essentially as described in Example 7. Cells were exposed to ABT-199 at serial dilution concentrations ranging from 15 nM to 100 μM (FIGS. 26 and 27). Cells were exposed to Obatoclax at concentrations ranging from 1.4 nM to 9 μM (FIG. 28).
IMR90 cells were induced to senescence by irradiation as described in Example 7. The irradiated IMR90 cells and non-senescent IMR90 cells were then exposed to a compound called ML214 that is a Bcl-2A1 specific inhibitor.
The effect of ABT-263 in combination with the Akt inhibitor MK-2206 was tested for selective toxicity of senescent cells compared to non-senescent cells in IMR90 cells. The methods of Example 7 were repeated except that cell cultures were exposed to 10 nM MK-2206 (Selleckem, Cat #S1078) in addition to serial dilutions of ABT-263.

[4] = tested on: non-senescent Primary Renal Cortical Cells; assay: CellTiter-Glo cell viability assay, non-senescent renal epithelial cells; type: cell-based; settings: 72 h, 3 days
Protocol: as §2, §3
(§4) The methods of Example 7 were repeated in other cell strains. […]

[5] = tested on: senescent Primary Renal Cortical Cells; assay: CellTiter-Glo cell viability assay, senescent renal epithelial cells; type: cell-based; settings: 72 h, 3 days
Protocol: as §2, §3, §4

[6] = tested on: non-senescent HCA2 foreskin fibroblast cells; assay: CellTiter-Glo cell viability assay, non-senescent HCA2; type: cell-based; settings: 72 h; non-senescent HCA2, 3 days
Protocol: as §2, §3, §4

[7] = tested on: senescent HCA2 foreskin fibroblast cells; assay: CellTiter-Glo cell viability assay, senescent HCA2; type: cell-based; settings: 72 h; senescent HCA2, 3 days
Protocol: as §2, §3, §4

[8] = tested on: senescent IMR90 cells (IMR90 Sen(IR)); assay: Pan-caspase inhibitor (Q-VD-OPh) apoptosis assay in IMR90 cells; type: cell-based, human
Protocol: Lung fibroblast cell line IMR90 (human primary lung fibroblasts, ATCC® CCL-186™, Manassas, Virginia) were seeded in six-well plates and induced to senesce with 10 Gy of ionizing radiation (IR) as described in Example 12. After senescence was established, cells were re-seeded into 96 well plates. […] At the end of the assay time period, cells were counted. Each condition was seeded in three plate wells and counted independently. […] Cell survival was determined using the commercially available CellTiter-Glo® Luminescent Cell Viability Assay (Promega Corporation, Madison, Wisconsin). The assay determines the number of viable cells in culture based on the quantitation of ATP present which is an indicator of metabolically active cells.

[9] = tested on: 3MR or INK-ATTAC mice exposed to cigarette smoke; assay: Chronic cigarette smoke exposure model (COPD); type: in vivo, mouse; settings: after 2 months of cigarette smoke exposure; vs untreated controls
Protocol: In a second animal model for pulmonary diseases (e.g., COPD), mice were exposed to cigarette smoke. The effect of a senolytic agent on the mice exposed to smoke is assessed by senescent cell clearance, lung function, and histopathology.
Six week-old 3MR (n=35) or INK-ATTAC (n=35) mice were chronically exposed to cigarette smoke generated from a Teague TE-10 system, an automatically-controlled cigarette smoking machine that produces a combination of side-stream and mainstream cigarette smoke in a chamber, which is transported to a collecting and mixing chamber where varying amounts of air is mixed with the smoke mixture. The COPD protocol was adapted from the COPD core facility at Johns Hopkins University (at Internet site web.jhu.edu/Biswal/exposure_core/copd.html#Cigarette_Smoke) (Rangasamy et al., 2004, J. Clin. Invest. 114:1248-1259; Yao et al., 2012, J. Clin. Invest. 122:2032-2045). Mice received a total of 6 hours of cigarette smoke exposure per day, 5 days a week for 6 months. Each lighted cigarette (3R4F research cigarettes containing 10.9 mg of total particulate matter (TPM), 9.4 mg of tar, and 0.726 mg of nicotine, and 11.9 mg carbon monoxide per cigarette [University of Kentucky, Lexington, KY]) was puffed for 2 seconds and once every minute for a total of 8 puffs, with the flow rate of 1.05 L/min, to provide a standard puff of 35 cm^3. The smoke machine was adjusted to produce a mixture of side stream smoke (89%) and mainstream smoke (11%) by smoldering 2 cigarettes at one time. The smoke chamber atmosphere was monitored for total suspended particulates (80-120 mg/m^3) and carbon monoxide (350 ppm). Beginning at day 7, (10) INK-ATTAC and (10) 3MR mice were treated with AP20187 (3× per week) or gancyclovir (5 consecutive days of treatment followed by 16 days off drug, repeated until the end of the experiment), respectively. An equal number of mice received the corresponding vehicle. The remaining […] (15 INK-ATTAC and 15 3MR) were evenly split with 5 of each genetically modified strain placed into three different treatment groups. One group (n=10) received Nutlin-3A (25 mg/kg dissolved in 10% DMSO/3% Tween-20 in PBS, treated 14 days consecutively followed by 14 days off drug, repeated until the end of the experiment). […]
After two months of cigarette smoke exposure, lung function was assessed by monitoring oxygen saturation using the MouseSTAT PhysioSuite pulse oximeter (Kent Scientific). […] Mice were monitored for 30 seconds and the average peripheral capillary oxygen saturation (SpO2) measurement over this duration was calculated.

[10] = tested on: p16-3MR mice treated with paclitaxel; assay: Voluntary exercise (wheel counts) after paclitaxel in p16-3MR mice; type: in vivo, mouse; settings: ABT-263 100 mg/kg i.p. daily 7 days; ganciclovir 25 mg/kg i.p. daily 3 days
Protocol: The capability of a senolytic agent, such as ABT-263, to reduce chemotherapy related side effects, such as fatigue, was examined in p16-3MR transgenic mice. In addition to doxorubicin, paclitaxel also induces cellular senescence when administered to animals. See Example 2 for a description of the p16-3MR transgenic mouse model.
In this experiment, paclitaxel was administered to groups of p16-3mr mice (n=4) three times, every two days. Two days after the third dose of paclitaxel, ganciclovir was administered daily for three days (days 1, 2, and 3) intraperitoneally at 25 mg/kg. ABT-263 (100 mg/kg) was administered intraperitoneally daily for seven days after paclitaxel administration. Two days after the last dose of ABT-263, all groups of animals were housed in metabolic cages (promethion, sable systems international, Las Vegas, NV) to monitor voluntary exercise as determined by wheel counts. Data were collected and analyzed two days later. Clearance of senescent cells by ABT-263 and ganciclovir restored approximately 70% of wheel count reduction caused by chemotherapy treatment.

With `CC1(C)CCC(c2ccc(Cl)cc2)=C(CN2CCN(c3ccc(C(=O)NS(=O)(=O)c4ccc(N[C@H](CCN5CCOCC5)CSc5ccccc5)c(S(=O)(=O)C(F)(F)F)c4)cc3)CC2)C1` [ABT-263, 4-[4-[[2-(4-chlorophenyl)-5,5-dimethylcyclohexen-1-yl]methyl]piperazin-1-yl]-N-[4-[[(2R)-4-morpholin-4-yl-1-phenylsulfanylbutan-2-yl]amino]-3-(trifluoromethylsulfonyl)phenyl]sulfonylbenzamide] the “Percentage of survival of cells after 24 hours” value [1] was “absence of toxicity”, the “Cell counts relative to counts before treatment” value [2] was 28% and the IC50 [3] was 2400 nM. For the same molecule, the IC50 (senescent IMR90 cells; Homo sapiens, IMR-90, 72 h, senescent IMR90, 3 days) was 140 nM, the “In vitro theoretical therapeutic index” value (senescent IMR90 cells; IMR90, non-senescent vs senescent IC50) was 17 and the IC50 [4] was 430 nM. The IC50 [5] was 25 nM, the IC50 [6] was greater than 3000 nM and the IC50 [7] was 410 nM. The “Percent of surviving senescent cells in the presence of the pan-caspase inhibitor” value ([8]; 0.33 or 1 μM, 3 days, Q-VD-OPh 20 μM) was “increased”, the “Selective killing of senescent cells” value ([8]; IMR90, 3 days) was “selectively kills senescent cells” and the SpO2 levels [9] was “statistically significant increases”. The “Restoration of wheel count reduction caused by chemotherapy” value [10] was “approximately 70%”.

From patent US11980616B2, “Treating liver disease by selectively eliminating senescent cells” (Buck Institute for Research on Aging, priority 2014, dated 2024)
